From US20230312473A1, “PROCESS FOR THE PREPARATION OF BIHETEROARYL COMPOUNDS AND CRYSTAL FORMS THEREOF” (Genentech, Inc., priority 2020, published 2023)
Where two headings read alike, the source gives them in different places.

How the values were obtained:
[1] = Solubility of compound 1 in the solvent under evaluation at 22° C. and 65° C. (crystallization study); type: physicochemical
Method: Crystalline compound 1 was evaluated. Crystallization study procedures were done based on the solubility of compound 1 in the solvent under evaluation as follows.
The results are presented below in Table 10 where: * refers to compound 1 prepared as described above; and ** refers to compound 1 prepared as described above and further incubated at 100% relative humidity at 22° C. for 17 days.

[2] = Mechanical stress evaluation: crystallinity by XRPD; type: physicochemical
Method: Compound 1, produced generally according to the method of Example 5, was evaluated for changes induced mechanical stress conditions, where crystallinity was evaluated by XRPD and where thermoanalytic characteristics were measured by differential scanning calorimetry (“DSC”), thermogravimetric analysis (“TGA”) and dynamic vapor sorption (“DVS”).
In a first evaluation, compound 1 was micronized by jet milling and evaluated by XRPD and DSC.
About 500 mg of compound 1 was dry grinded for about 5 minutes at ambient conditions with a mortar and pestle in order to simulate shear stresses encountered during a dry granulation. […] Furthermore, thermoanalytic data as measured by DSC, TGA, and DVS was only marginally different from compound 1 starting material (see Table 12 below).
The effect of pressure on compound 1 was performed to investigate whether phase transformation could occur during tableting. The conditions were 1.8 T/5 mm compact, 900 MPa, about 30 mg of compound 1, and a dwell time of about 6 seconds). The tablets were analyzed without further treatment and after gentle crushing of the tablets with a pestle. […] FIG. 2 pattern (b) is the XRPD pattern for crushed tablets. FIG. 2 pattern (c) is the XRPD pattern for tablets that were not crushed.
To simulate wet milling, wet manual grinding experiments were done. About 500 mg of compound 1 and about 0.5 mL water were kneaded for about 5 minutes with a mortar and pestle. About 100 mg of the wet material was analyzed by XRPD. The remainder of the material was dried overnight in an oven at 50° C. and ambient pressure. The dried material was analyzed by […], DSC, TGA, and DVS.

## Nc1ncc(-c2cc(N3C[C@@H]4C[C@H]3CO4)nc(N3CCC(F)(F)C3)n2)cc1OC(F)F [Compound 1, 5-(6-((1S,4S)-2-oxa-5-azabicyclo[2.2.1]heptan-5-yl)-2-(3,3-difluoropyrrolidin-1-yl)pyrimidin-4-yl)-3-(difluoromethoxy)pyridin-2-amine]
[1]; Diisopropylamine, 22 °C, organic solvent or mixture, thermodynamic from solid, solvent: Diisopropylamine, read-out: Solubility at 22° C.
  solubility: < 50 mg/mL
[1]; Diisopropylamine, 65 °C, organic solvent or mixture, solvent: Diisopropylamine, read-out: Solubility at 65° C.
  solubility: < 50 mg/mL
[1]; Dimethyl carbonate, 22 °C, organic solvent or mixture, thermodynamic from solid, solvent: Dimethyl carbonate, read-out: Solubility at 22° C.
  solubility: < 50 mg/mL
[1]; Dimethyl carbonate, 65 °C, organic solvent or mixture, solvent: Dimethyl carbonate, read-out: Solubility at 65° C.
  solubility: > 50 mg/mL
[1]; Dioxane, 22 °C, organic solvent or mixture, thermodynamic from solid, solvent: Dioxane, read-out: Solubility at 22° C.
  solubility: > 50 mg/mL
[1]; Ethyl acetate, 22 °C, organic solvent or mixture, thermodynamic from solid, solvent: Ethyl acetate, read-out: Solubility at 22° C.
  solubility: < 50 mg/mL
[1]; Ethyl acetate, 65 °C, organic solvent or mixture, solvent: Ethyl acetate, read-out: Solubility at 65° C.
  solubility: > 50 mg/mL
[1]; Isopropyl acetate, 22 °C, organic solvent or mixture, thermodynamic from solid, solvent: Isopropyl acetate, read-out: Solubility at 22° C.
  solubility: < 50 mg/mL
[1]; Isopropyl acetate, 65 °C, organic solvent or mixture, solvent: Isopropyl acetate, read-out: Solubility at 65° C.
  solubility: < 50 mg/mL
[1]; MEK, 22 °C, organic solvent or mixture, thermodynamic from solid, solvent: MEK, read-out: Solubility at 22° C.
  solubility: < 50 mg/mL
[1]; MEK, 65 °C, organic solvent or mixture, thermodynamic from solid, solvent: MEK, read-out: Solubility at 65° C.
  solubility: < 50 mg/mL
[1]; MIBK, 22 °C, organic solvent or mixture, thermodynamic from solid, solvent: MIBK, read-out: Solubility at 22° C.
  solubility: < 50 mg/mL
[1]; MIBK, 65 °C, organic solvent or mixture, thermodynamic from solid, solvent: MIBK, read-out: Solubility at 65° C.
  solubility: < 50 mg/mL
[1]; MTBE, 22 °C, organic solvent or mixture, thermodynamic from solid, solvent: MTBE, read-out: Solubility at 22° C.
  solubility: < 50 mg/mL
[1]; MTBE, 65 °C, organic solvent or mixture, thermodynamic from solid, solvent: MTBE, read-out: Solubility at 65° C.
  solubility: < 50 mg/mL
[1]; Methanol, 22 °C, organic solvent or mixture, thermodynamic from solid, solvent: Methanol, read-out: Solubility at 22° C.
  solubility: < 50 mg/mL
[1]; Methanol, 65 °C, organic solvent or mixture, thermodynamic from solid, solvent: Methanol, read-out: Solubility at 65° C.
  solubility: < 50 mg/mL
[1]; NMP, 22 °C, organic solvent or mixture, thermodynamic from solid, solvent: NMP, read-out: Solubility at 22° C.
  solubility: > 200 mg/mL
[1]; THF, 22 °C, organic solvent or mixture, thermodynamic from solid, solvent: THF, read-out: Solubility at 22° C.
  solubility: > 50 mg/mL
[1]; Toluene, 22 °C, organic solvent or mixture, thermodynamic from solid, solvent: Toluene, read-out: Solubility at 22° C.
  solubility: < 50 mg/mL
[1]; Toluene, 65 °C, organic solvent or mixture, thermodynamic from solid, solvent: Toluene, read-out: Solubility at 65° C.
  solubility: < 50 mg/mL
[1]; acetone, 22 °C, organic solvent or mixture, thermodynamic from solid, solvent: Acetone, read-out: Solubility at 22° C.
  solubility: < 50 mg/mL
[1]; acetone, 65 °C, organic solvent or mixture, solvent: Acetone, read-out: Solubility at 65° C.
  solubility: > 50 mg/mL
[1]; butanol, 22 °C, organic solvent or mixture, thermodynamic from solid, solvent: Butanol, read-out: Solubility at 22° C.
  solubility: < 50 mg/mL
[1]; butanol, 65 °C, organic solvent or mixture, solvent: Butanol, read-out: Solubility at 65° C.
  solubility: < 50 mg/mL
[1]; ethanol, 22 °C, organic solvent or mixture, thermodynamic from solid, solvent: Ethanol, read-out: Solubility at 22° C.
  solubility: < 50 mg/mL
[1]; ethanol, 65 °C, organic solvent or mixture, solvent: Ethanol, read-out: Solubility at 65° C.
  solubility: < 50 mg/mL
[1]; i-butanol, 22 °C, organic solvent or mixture, thermodynamic from solid, solvent: i-Butanol, read-out: Solubility at 22° C.
  solubility: < 50 mg/mL
[1]; i-butanol, 65 °C, organic solvent or mixture, thermodynamic from solid, solvent: i-Butanol, read-out: Solubility at 65° C.
  solubility: < 50 mg/mL
[1]; isopropanol, 22 °C, organic solvent or mixture, thermodynamic from solid, solvent: Isopropanol, read-out: Solubility at 22° C.
  solubility: < 50 mg/mL
[1]; isopropanol, 65 °C, organic solvent or mixture, solvent: Isopropanol, read-out: Solubility at 65° C.
  solubility: < 50 mg/mL
[1]; n-Heptane, 22 °C, organic solvent or mixture, thermodynamic from solid, solvent: n-Heptane, read-out: Solubility at 22° C.
  solubility: < 50 mg/mL
[1]; n-Heptane, 65 °C, organic solvent or mixture, thermodynamic from solid, solvent: n-Heptane, read-out: Solubility at 65° C.
  solubility: < 50 mg/mL
[1]; nitromethane, 22 °C, organic solvent or mixture, thermodynamic from solid, solvent: Nitromethane, read-out: Solubility at 22° C.
  solubility: < 50 mg/mL
[1]; nitromethane, 65 °C, organic solvent or mixture, thermodynamic from solid, solvent: Nitromethane, read-out: Solubility at 65° C.
  solubility: > 50 mg/mL
[1]; propanol, 22 °C, organic solvent or mixture, thermodynamic from solid, solvent: Propanol, read-out: Solubility at 22° C.
  solubility: < 50 mg/mL
[1]; propanol, 65 °C, organic solvent or mixture, thermodynamic from solid, solvent: Propanol, read-out: Solubility at 65° C.
  solubility: < 50 mg/mL
[1]; s-butanol, 22 °C, organic solvent or mixture, thermodynamic from solid, solvent: s-butanol, read-out: Solubility at 22° C.
  solubility: < 50 mg/mL
[1]; s-butanol, 65 °C, organic solvent or mixture, thermodynamic from solid, solvent: s-butanol, read-out: Solubility at 65° C.
  solubility: < 50 mg/mL
[1]; water, 22 °C, water, thermodynamic from solid, solvent: Water, read-out: Solubility at 22° C.
  solubility: < 50 mg/mL
[1]; water, 65 °C, water, thermodynamic from solid, solvent: Water, read-out: Solubility at 65° C.
  solubility: < 50 mg/mL
[2]; after manual wet milling and after hot drying of wet milled material
  crystallinity by XRPD: No reduction in the crystallinity
[2]; dry grinded about 5 minutes with mortar and pestle (simulated dry granulation)
  crystallinity by XRPD: No reduction of crystallinity
[2]; micronized by jet milling
  influence on crystallinity: no significant influence on crystallinity
[2]; tableting, 900 MPa, dwell about 6 seconds, with and without crushing of the tablets
  crystallinity by XRPD: some reduction of crystallinity
